In ChEMBL document CHEMBL1142476, “Inhibition of Candida albicans isocitrate lyase activity by sesterterpene sulfates from the tropical sponge Dysidea sp” (Bioorg Med Chem Lett, 2008) one finds MIC and IC50 data, which are given here for ten molecules.

One assay has as its system Salmonella typhimurium. Briefly: Antibacterial activity against Salmonella Typhimurium ATCC 14028. Type of assay: functional, Salmonella enterica subsp. enterica serovar Typhimurium. The settings on record: Salmonella enterica.
The test system of the next assay is Staphylococcus aureus. Briefly: Antibacterial activity against Staphylococcus aureus ATCC 6538. The assay is classed as functional.
The next assay relates to Candida albicans. Description: Antifungal activity against candida albicans ATCC 10231. Type of assay: functional, organism-based.
The subject of a further assay is Bacillus subtilis. Briefly: Antibacterial activity against Bacillus subtilis ATCC 6633. The assay is classed as functional.
The test system of another assay is Micrococcus luteus. Description: Antibacterial activity against Micrococcus luteus IFC12708. Type of assay: functional.
Another assay concerns Proteus vulgaris. Description: Antibacterial activity against Proteus vulgaris ATCC 3851. Type of assay: functional.
The next assay concerns Escherichia coli. Briefly: Antibacterial activity against Escherichia coli ATCC 11775. Type of assay: functional.
The next assay addresses Isocitrate lyase (Candida albicans, UniProt Q9P8Q7). Briefly: Inhibition of candida albicans isocitrate lyase.

SMILES strings stand for the structures. pIC50: −log10 of the molar value. Converted amounts (≈) assume the structure as drawn.

As usually defined, the MIC is the lowest concentration that inhibits growth of the organism. A low value points to greater potency. Broadly, the pIC50 is the negative decadic logarithm of the IC50, by convention in mol/L. The low end stands for a high IC50, the high end for a low IC50.

Chain of Isocitrate lyase (Q9P8Q7 whole entry): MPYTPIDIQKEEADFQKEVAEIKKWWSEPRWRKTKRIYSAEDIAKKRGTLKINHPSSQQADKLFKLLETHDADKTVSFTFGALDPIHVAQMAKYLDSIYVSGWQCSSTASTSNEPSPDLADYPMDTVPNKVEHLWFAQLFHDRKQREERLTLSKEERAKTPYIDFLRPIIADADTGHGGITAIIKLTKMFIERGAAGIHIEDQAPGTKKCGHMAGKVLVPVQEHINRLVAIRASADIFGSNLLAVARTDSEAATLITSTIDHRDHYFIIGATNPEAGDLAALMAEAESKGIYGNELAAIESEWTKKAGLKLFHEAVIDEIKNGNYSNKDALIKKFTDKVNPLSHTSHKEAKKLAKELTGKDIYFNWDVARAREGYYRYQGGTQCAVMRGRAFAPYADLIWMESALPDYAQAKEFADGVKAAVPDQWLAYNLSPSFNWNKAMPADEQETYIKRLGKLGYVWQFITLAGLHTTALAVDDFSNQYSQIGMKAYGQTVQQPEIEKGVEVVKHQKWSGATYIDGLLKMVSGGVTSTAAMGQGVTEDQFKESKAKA

Turning to `C=C1CCC[C@@H]2[C@@](C)(CC[C@H](CCCc3ccoc3)COS(=O)(=O)O)[C@H](C)CC[C@]12C.CN(C)C(=N)N`, the MIC in the assay on Salmonella typhimurium is 25 µg/mL; in the assay with Staphylococcus aureus, 50 µg/mL; against Bacillus subtilis it was 12.5 µg/mL; in the assay on Micrococcus luteus, 25 µg/mL; with Proteus vulgaris it was 6.25 µg/mL; with Escherichia coli, greater than 100 µg/mL. Besides, the pIC50 is 3.73 in the assay on Candida albicans and 4.50 on Isocitrate lyase.

For the molecule `CC1=CC[C@H]2C(C)(C)CCC[C@]2(C)[C@H]1C[C@@H](OS(=O)(=O)O)[C@H](C)CCC/C(C)=C/Cc1cc(O)ccc1O.CN(C)C(=N)N`, the MIC is 50 µg/mL with Salmonella typhimurium; 50 µg/mL in the assay with Staphylococcus aureus; 6.25 µg/mL with Bacillus subtilis; greater than 100 µg/mL with Micrococcus luteus; 12.5 µg/mL in the assay with Proteus vulgaris; greater than 100 µg/mL in the assay on Escherichia coli. Also, the pIC50 in the assay on Candida albicans and against Isocitrate lyase was 3.80 in each case.

As for `CC1=CC[C@H]2C(C)(C)CCC[C@]2(C)[C@H]1C[C@@H](OS(=O)(=O)[O-])[C@H](C)CCC/C(C)=C/Cc1cc(O)ccc1O.[Na+]` [HALISULFATE 1], the MIC in the assay with Salmonella typhimurium was 50 µg/mL; against Staphylococcus aureus it was 25 µg/mL; against Bacillus subtilis, 1.56 µg/mL; in the assay on Micrococcus luteus, 50 µg/mL; against Proteus vulgaris, 6.25 µg/mL; in the assay on Escherichia coli, greater than 100 µg/mL. Further, the pIC50 in the assay with Candida albicans was 3.88; on Isocitrate lyase, 4.15.

As for `CC1=CCC[C@@H](C)[C@]1(C)CC/C(C)=C/CCC(CCCc1ccoc1)COS(=O)(=O)O.CN(C)C(=N)N` (stereo not given in full), the MIC with Salmonella typhimurium was greater than 100 µg/mL; in the assay with Staphylococcus aureus it was greater than 100 µg/mL; in the assay on Bacillus subtilis, 6.25 µg/mL; with Micrococcus luteus it was greater than 100 µg/mL; in the assay with Proteus vulgaris, 25 µg/mL; in the assay with Escherichia coli it was greater than 100 µg/mL. The pIC50 with Candida albicans and against Isocitrate lyase was 3.73 in each case.

On to `CC1=CC[C@H]2C(C)(C)CCC[C@]2(C)[C@H]1C/C=C(\C)CCC/C(C)=C/Cc1cc(O)ccc1O`, for which the MIC is 25 µg/mL (≈ 55.5 µM) against Salmonella typhimurium; 100 µg/mL (≈ 222 µM) with Staphylococcus aureus; 3.25 µg/mL (≈ 7.21 µM) in the assay with Bacillus subtilis; 25 µg/mL (≈ 55.5 µM) in the assay with Micrococcus luteus; 6.25 µg/mL (≈ 13.9 µM) in the assay on Proteus vulgaris; greater than 100 µg/mL in the assay on Escherichia coli. Further, the pIC50 in the assay with Candida albicans was 3.65; at Isocitrate lyase, 4.11.

Take `CN(C)C(=N)N.C[C@@H]1CCC2=C(CCCC2(C)C)[C@@]1(C)CC[C@H](CCCc1ccoc1)COS(=O)(=O)O`: the MIC in the assay with Salmonella typhimurium is greater than 100 µg/mL; against Staphylococcus aureus, 50 µg/mL; in the assay on Bacillus subtilis, 6.25 µg/mL; in the assay with Micrococcus luteus it was 50 µg/mL; in the assay with Proteus vulgaris, 12.5 µg/mL; with Escherichia coli it was greater than 100 µg/mL. Further, the pIC50 with Candida albicans is 3.73; on Isocitrate lyase, 4.47.

As to `CC1(C)S[C@@H]2[C@H](NC(=O)[C@H](N)c3ccccc3)C(=O)N2[C@H]1C(=O)O` [AMPICILLIN], the MIC against Salmonella typhimurium was determined as 1.56 µg/mL (≈ 4.46 µM); against Staphylococcus aureus, 3.12 µg/mL (≈ 8.93 µM); against Bacillus subtilis it was 1.56 µg/mL (≈ 4.46 µM); against Micrococcus luteus, 1.56 µg/mL (≈ 4.46 µM); in the assay with Proteus vulgaris, 1.56 µg/mL (≈ 4.46 µM); with Escherichia coli it was 6.25 µg/mL (≈ 17.9 µM).

Consider `C[C@@H]1[C@H](O)[C@@H](C)/C=C/C=C/C=C/C=C/C=C/C=C/C=C/[C@H](O[C@@H]2O[C@H](C)[C@@H](O)[C@H](N)[C@@H]2O)C[C@@H]2O[C@](O)(C[C@@H](O)C[C@@H](O)[C@H](O)CC[C@@H](O)C[C@@H](O)CC(=O)O[C@H]1C)C[C@H](O)[C@H]2C(=O)O` [AMPHOTERICIN B], for which, in the assay with Candida albicans, the pIC50 is 5.77.

In the case of `O=C(O)CC[N+](=O)[O-]`, the pIC50 in the assay on Candida albicans was 3.07; at Isocitrate lyase, 4.29.

Consider `C=C1CC[C@H]2C(C)(C)CCC[C@]2(C)[C@H]1C[C@@H](OS(=O)(=O)[O-])[C@H](C)CCC/C(C)=C/Cc1cc(O)ccc1O.[Na+]`, for which the minimal inhibitory concentration (MIC) in the assay on Salmonella typhimurium was 50 µg/mL; in the assay on Staphylococcus aureus, 25 µg/mL; in the assay with Bacillus subtilis, 1.56 µg/mL; against Micrococcus luteus, 50 µg/mL; in the assay on Proteus vulgaris it was 6.25 µg/mL; in the assay with Escherichia coli, greater than 100 µg/mL. Moreover, the results for the pIC50 in the assay with Candida albicans and against Isocitrate lyase were 3.88 and 4.15, respectively.
